Results on two compounds are retold here after patent US7205309B2, “Quinazoline derivatives” (Hoffmann-La Roche Inc., priority 2002, dated 2007).

This test has as its target T1, recombinant mouse NPY5-receptor (mNPY5) (Mus musculus, UniProt O70342).
T1 construct: The full-length cDNA encoding the mouse NPY5 (mNPY5) receptor was amplified from mouse brain cDNA; expressed in transfected cells; membranes used
T1 sequence (O70342 1-466): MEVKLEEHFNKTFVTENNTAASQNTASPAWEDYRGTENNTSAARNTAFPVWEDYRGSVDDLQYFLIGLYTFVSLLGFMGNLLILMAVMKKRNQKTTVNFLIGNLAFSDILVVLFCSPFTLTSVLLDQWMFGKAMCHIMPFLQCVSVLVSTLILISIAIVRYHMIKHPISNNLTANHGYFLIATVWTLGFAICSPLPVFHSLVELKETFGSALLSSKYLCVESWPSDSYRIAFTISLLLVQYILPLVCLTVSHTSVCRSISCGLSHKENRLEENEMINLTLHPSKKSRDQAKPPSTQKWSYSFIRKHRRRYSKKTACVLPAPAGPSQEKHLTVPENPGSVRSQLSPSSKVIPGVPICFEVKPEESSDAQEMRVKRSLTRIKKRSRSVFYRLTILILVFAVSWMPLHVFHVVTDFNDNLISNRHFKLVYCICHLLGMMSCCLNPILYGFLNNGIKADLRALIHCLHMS
As to the kind of experiment: Radioligand competition binding. The settings on record: membranes of HEK293 cells expressing mNPY5; 100 pM [125I]labeled peptide YY; 1 h at 22° C.; read-out: NPY5-R (mouse) IC50. The source says: The full-length cDNA encoding the mouse NPY5 (mNPY5) receptor was amplified from mouse brain cDNA using specific primers, designed based on the published sequence, and Pfu DNA-Polymerase. The amplification product was subcloned into the mammalian expression vector pcDNA3 using Eco RI and XhoI restriction sites. Positive clones were sequenced and one clone, encoding the published sequence was selected for generation of stable cell clones.
Human embryonic kidney 293 (HEK293) cells were transfected with 10 μg mNPY5 DNA using the lipofectamine reagent. Two days after transfection, geneticin selection (1 mg/ml) was initiated and several stable clones were isolated. One clone was further used for pharmacological characterization.
Human embryonic kidney 293 cells (HEK293), expressing recombinant mouse NPY5-receptor (mNPY5) were broken by three freeze/thawing cycles in hypotonic Tris buffer (5 mM, pH 7.4, 1 mM MgCl2), homogenized and centrifuged at 72,000×g for 15 min. The pellet was washed twice with 75 mM Tris buffer, pH 7.4, containing 25 mM MgCl2 and 250 mM sucrose, 0.1 mM phenylmethylsulfonylfluoride and 0.1 mM 1,10-pheneanthrolin, resuspended in the same buffer and stored in aliquots at −80° C. Protein was determined according to the method of Lowry using bovine serum albumine (BSA) as a standard. […]
For orientation: Loss of bound radioactivity is the signal in a displacement assay; it reports binding, not function.

On to `Cc1nc(N2CCCC2)c2ccc(OCc3ccc(C#N)cc3)cc2n1` [Compound 3, 4-(2-methyl-4-pyrrolidin-1-yl-quinazolin-7-yloxymethyl)-benzonitrile], for which the IC50 is 9 nM.

With `Cc1nc(N2CCCC2)c2ccc(NCC(C)C)cc2n1` [Compound 24, isobutyl-(2-methyl-4-pyrrolidin-1-yl-quinazolin-7-yl)-amine], the IC50 amounted to 3 nM.

As usually defined, the IC50 is the midpoint of a concentration-inhibition curve.
